Laboratory results from PMC9133015 (Nature Communications, 2022).
Several values for one entry are separate records, joined by “and”; a condition that tells them apart may be missing. Identical values can stand only once.

Assays:
[1] = system: 22Rv1 cells; test: Anti-proliferation activity assay (CCK8, 72 h); format: cell-based, human; conditions: 22Rv1, replicates
[2] = system: PC-3 cells; test: Colony formation assay; format: cell-based, human; conditions: 40 µM, replicates
[3] = system: RWPE-1 cells; test: Anti-proliferation activity assay (CCK8, 72 h); format: cell-based; conditions: RWPE1, replicates
[4] = system: DU145 cells; test: Cell cycle assay (PI flow cytometry); format: cell-based, human; conditions: DU145, 40 μM, replicates
[5] = system: PC-3 cells; test: Cell cycle assay (PI flow cytometry); format: cell-based, human; conditions: PC-3, 40 µM, replicates
[6] = system: 22Rv1 cells; test: Cell cycle assay (PI flow cytometry); format: cell-based, human; conditions: 22Rv1, 20 μM, replicates
[7] = system: DU145 cells; test: Anti-proliferation activity assay (CCK8, 72 h); format: cell-based, human; conditions: DU145, replicates
[8] = system: PC-3 cells; test: Anti-proliferation activity assay (CCK8, 72 h); format: cell-based, human; conditions: PC-3, replicates
[9] = system: DU145 cells; test: Apoptosis assay (Annexin V-APC/PI flow cytometry); format: cell-based, human; conditions: DU145, 40 μM, replicates
[10] = system: PC-3 cells; test: Apoptosis assay (Annexin V-APC/PI flow cytometry); format: cell-based, human; conditions: PC-3; 40 µM; replicates
[11] = system: 22Rv1 cells; test: Apoptosis assay (Annexin V-APC/PI flow cytometry); format: cell-based, human; conditions: 22Rv1, 20 μM, replicates
[12] = system: DU145 xenograft; test: In vivo antitumor activity, DU145 xenograft mouse model; design: species or system BALB/c nude mice; conditions: for Tumor volume (Fig. 7a): individual mice 1-10, in cm³ (unit assumed)
[13] = system: 22Rv1 cells; test: Invasion assay (transwell); format: cell-based, human; conditions: 22Rv1, 20 μM, replicates
[14] = system: DU145 xenograft; test: H&E and Ki67 staining of xenograft tumor tissues; format: in vivo, BALB/c nude mice; conditions: DU145, reference drug groups, replicates
[15] = system: DU145 cells; test: Migration assay (transwell); format: cell-based, human; conditions: DU145, 40 μM, replicates
[16] = system: PC-3 cells; test: Migration assay (transwell); format: cell-based, human; conditions: PC-3; 40 µM; replicates
[17] = system: 22Rv1 cells; test: Migration assay (transwell); format: cell-based, human; conditions: 22Rv1, 20 μM, replicates
[18] = system: PC-3 cells; test: Cell growth assay (5-day course); format: cell-based, human; conditions: PC-3, 40 µM, replicates
[19] = system: DU145 cells; test: Invasion assay (transwell); format: cell-based, human; conditions: DU145, 40 μM, replicates
[20] = system: PC-3 cells; test: Invasion assay (transwell); format: cell-based, human; conditions: PC-3; 40 µM; replicates
[21] = system: DU145 cells; test: Colony formation assay; format: cell-based, human; conditions: DU145, 40 μM, replicates
[22] = system: 22Rv1 cells; test: Colony formation assay; format: cell-based, human; conditions: 22Rv1, 20 μM, replicates

For CNC(=O)c1ccc(N2C(=S)N(c3ccc(C#N)c(C(F)(F)F)c3)C(=O)C2(C)C)cc1F [enzalutamide], the optical density ([1]; 2.5 uM) was 0.81 and 0.838 and 0.791, the optical density ([1]; 5 uM) was 0.775 and 0.808 and 0.759 and the optical density ([1]; 10 uM) was 0.619 and 0.678 and 0.623. For the same compound, the optical density ([1]; 20 uM) was 0.455 and 0.528 and 0.472, the optical density ([1]; 40 uM) was 0.22 and 0.347 and 0.272 and the optical density ([1]; 80 uM) was 0.191. The “Colony formation (cell number)” value [2] was 160 cell number and 145 cell number, the optical density ([3]; 2.5 uM) was 0.992 and 1.025 and 0.996 and the optical density ([3]; 5 uM) was 0.949 and 0.989 and 0.956. For the same compound, the optical density ([3]; 10 uM) was 0.858 and 0.962 and 0.898, the optical density ([3]; 20 uM) was 0.786 and 0.838 and 0.802 and the optical density ([3]; 40 uM) was 0.517 and 0.686 and 0.593. The optical density ([3]; 80 uM) was 0.393 and 0.433 and 0.408, the “Cell cycle percentages ( % ) G0/G1” value [4] was 57.27% and 58.94% and 59.05% and the “Cell cycle percentages ( % ) G2/M” value [4] was 23.68% and 22.3% and 24.16%. The “Cell cycle percentages ( % ) S” value [4] was 19.05% and 18.76% and 16.79%, the “Cell cycle percentages ( % ) G0/G1” value ([5]; G0/G1) was 70.26% and 71.93% and 73.13% and the “Cell cycle percentages ( % ) G2/M” value ([5]; G2/M) was 18.02% and 17.63% and 16.26%. For the same compound, the “Cell cycle percentages ( % ) S” value ([5]; S) was 11.72% and 10.44% and 10.61%, the “Cell cycle percentages ( % ) G0/G1” value [6] was 69.98% and 71.27% and 73.69% and the “Cell cycle percentages ( % ) G2/M” value [6] was 14.06% and 12.61% and 11.06%. For the same compound, the “Cell cycle percentages ( % ) S” value [6] was 15.96% and 16.12% and 15.25%, the optical density ([7]; 2.5 uM) was 1.167 and 1.145 and 1.124 and the optical density ([7]; 5 uM) was 1.127 and 1.118 and 1.073. For the same compound, the optical density ([7]; 10 uM) was 1.073 and 1.05 and 1.035, the optical density ([7]; 20 uM) was 0.93 and 0.926 and 0.882 and the optical density ([7]; 40 uM) was 0.602 and 0.626 and 0.546. For the same compound, the optical density ([7]; 80 uM) was 0.325 and 0.374 and 0.256, the optical density ([8]; 2.5 uM) was 1.074 and 1.037 and 1.019 and the optical density ([8]; 5 uM) was 1.05 and 1.004 and 0.976. The optical density ([8]; 10 uM) was 1.021 and 0.964 and 0.924, the optical density ([8]; 20 uM) was 0.935 and 0.906 and 0.894 and the optical density ([8]; 40 uM) was 0.769 and 0.721 and 0.688. The optical density ([8]; 80 uM) was 0.516 and 0.456 and 0.403, the “Apoptosis (%)” value [9] was 11.89% and 10.52% and 9.68% and the “Apoptosis (%)” value [10] was 5.39% and 5.46% and 5.82%. The “Apoptosis (%)” value [11] was 4.36% and 5.45% and 6.23%, the “antitumor activity (in words)” value ([12]; DU145 xenograft, 100 mg/kg orally once a day, seven weeks) was “only delayed the tumor growth” and the “Tumor volume (Fig. 7a)” value ([12]; Day 1) was 0.06831 and 0.0728 and 0.08842 and 0.07149 and 0.08267 and 0.0792 and 0.07365 and 0.09986 and 0.09475 and 0.08367. For the same compound, the “Tumor volume (Fig. 7a)” value ([12]; Day 3) was 0.1054 and 0.1066 and 0.1367 and 0.1112 and 0.1273 and 0.1097 and 0.1065 and 0.1474 and 0.1553 and 0.1239, the “Tumor volume (Fig. 7a)” value ([12]; Day 5) was 0.1354 and 0.1343 and 0.1923 and 0.144 and 0.1749 and 0.1417 and 0.1334 and 0.2305 and 0.2202 and 0.1878 and the “Tumor volume (Fig. 7a)” value ([12]; Day 7) was 0.1816 and 0.1822 and 0.2496 and 0.1945 and 0.234 and 0.2013 and 0.2322 and 0.3186 and 0.2993 and 0.2348. The “Tumor volume (Fig. 7a)” value ([12]; Day 9) was 0.236 and 0.2398 and 0.2946 and 0.2457 and 0.337 and 0.2675 and 0.2935 and 0.3821 and 0.38 and 0.3125, the “Tumor volume (Fig. 7a)” value ([12]; Day 11) was 0.2749 and 0.3065 and 0.4056 and 0.2756 and 0.3984 and 0.3105 and 0.3205 and 0.5039 and 0.4644 and 0.382 and the “Tumor volume (Fig. 7a)” value ([12]; Day 13) was 0.3292 and 0.3636 and 0.3775 and 0.3177 and 0.4798 and 0.3714 and 0.3893 and 0.5706 and 0.5218 and 0.4116. For the same compound, the “Tumor volume (Fig. 7a)” value ([12]; Day 15) was 0.4104 and 0.4397 and 0.4958 and 0.3678 and 0.5629 and 0.4479 and 0.4493 and 0.6357 and 0.6164 and 0.4936, the “Tumor volume (Fig. 7a)” value ([12]; Day 17) was 0.473 and 0.4645 and 0.5899 and 0.4301 and 0.6355 and 0.511 and 0.4922 and 0.7115 and 0.6607 and 0.5477 and the “Tumor volume (Fig. 7a)” value ([12]; Day 19) was 0.458 and 0.4883 and 0.6303 and 0.4489 and 0.6566 and 0.5391 and 0.5247 and 0.7614 and 0.6322 and 0.6372. The “Tumor weight (Fig. 7c)” value ([12]; reference drug groups, individual mice, in g (unit assumed)) was 1.15 and 1.34 and 1.28 and 1.42 and 1.33 and 1.5 and 1.37 and 1.08 and 1.22 and 1.16, the “Cell invasion (cell number)” value [13] was 1680 cell number and 1543 cell number and the “Positive rate ( % ) (Fig. 7f)” value [14] was 30.71% and 31.3% and 29.1%. The “Cell migration (cell number)” value [15] was 4002 cell number and 3988 cell number and 4105 cell number, the “Cell migration (cell number)” value [16] was 1100 cell number and 1076 cell number and 923 cell number and the “Cell migration (cell number)” value [17] was 1459 cell number and 1378 cell number and 1390 cell number. For the same compound, the optical density ([18]; day 0) was 0.269, the optical density ([18]; day 1) was 0.288 and 0.29 and 0.285 and the optical density ([18]; day 2) was 0.517 and 0.519 and 0.473. For the same compound, the optical density ([18]; day 3) was 0.701 and 0.705 and 0.6, the optical density ([18]; day 4) was 1.438 and 1.323 and 1.218 and the “Cell invasion (cell number)” value [19] was 1897 cell number and 1923 cell number and 1867 cell number. For the same compound, the “Cell invasion (cell number)” value [20] was 2300 cell number and 2405 cell number and 2379 cell number, the “Colony formation (cell number)” value [21] was 205 cell number and 218 cell number and 226 cell number and the “Colony formation (cell number)” value [22] was 560 cell number and 530 cell number and 570 cell number.
